{
  "source": "ChEMBL document CHEMBL4118122",
  "about": "“Identification and biological evaluation of thiazole-based inverse agonists of RORγt” (Bioorg Med Chem Lett, 2018)",
  "key": {"[1]": {"target": "B2 bradykinin receptor (Homo sapiens) (UniProt P30411)", "experiment": "Displacement of [3H]bradykinin from human recombinant B2 receptor at 1 uM after 60 mins by scintillation counting analysis relative to control"}, "[2]": {"target": "Neurotensin receptor type 1 (Homo sapiens, UniProt P30989)", "sequence (P30989 whole entry)": "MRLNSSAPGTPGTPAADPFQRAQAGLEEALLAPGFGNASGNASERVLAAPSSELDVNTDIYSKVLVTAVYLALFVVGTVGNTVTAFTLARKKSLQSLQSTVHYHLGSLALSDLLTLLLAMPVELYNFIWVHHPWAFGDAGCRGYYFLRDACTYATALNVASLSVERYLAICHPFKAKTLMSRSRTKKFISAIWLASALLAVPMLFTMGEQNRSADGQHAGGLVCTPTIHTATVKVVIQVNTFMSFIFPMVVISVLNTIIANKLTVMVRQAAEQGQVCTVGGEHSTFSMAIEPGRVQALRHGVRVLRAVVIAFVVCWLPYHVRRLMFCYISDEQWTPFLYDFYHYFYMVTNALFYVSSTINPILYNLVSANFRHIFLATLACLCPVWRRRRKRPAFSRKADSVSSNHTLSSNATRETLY", "experiment": "Displacement of [125I]Tyr3-neurotensin from human recombinant NTS1 receptor at 1 uM after 120 mins by scintillation counting analysis relative to control"}, "[3]": {"target": "T1, PXR (NR1I2) (Homo sapiens, UniProt O75469)", "T1 sequence (O75469 whole entry)": "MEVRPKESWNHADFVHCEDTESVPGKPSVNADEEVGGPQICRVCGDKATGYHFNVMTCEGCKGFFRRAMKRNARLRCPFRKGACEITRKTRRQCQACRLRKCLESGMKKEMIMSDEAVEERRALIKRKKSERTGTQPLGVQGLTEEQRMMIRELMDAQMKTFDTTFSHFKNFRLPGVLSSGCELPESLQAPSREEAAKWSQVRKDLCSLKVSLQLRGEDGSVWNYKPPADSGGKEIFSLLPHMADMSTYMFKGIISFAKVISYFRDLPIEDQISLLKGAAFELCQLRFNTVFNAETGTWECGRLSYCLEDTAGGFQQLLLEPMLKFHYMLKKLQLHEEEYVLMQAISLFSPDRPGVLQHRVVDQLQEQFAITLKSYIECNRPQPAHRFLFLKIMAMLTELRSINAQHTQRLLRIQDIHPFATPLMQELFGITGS", "experiment": "[…] at PXR LBD (unknown origin) expressed in HEK293 cells […] at 1 uM after 16 hrs by luciferase reporter gene assay relative to rifampicin", "format": "ADME, cell-based", "details": "HEK293 cells expressing PXR LBD, read-out: Efficacy"}, "[4]": {"target": "Serine/threonine-protein kinase PLK1 (Homo sapiens) (UniProt P53350)", "sequence (P53350 whole entry)": "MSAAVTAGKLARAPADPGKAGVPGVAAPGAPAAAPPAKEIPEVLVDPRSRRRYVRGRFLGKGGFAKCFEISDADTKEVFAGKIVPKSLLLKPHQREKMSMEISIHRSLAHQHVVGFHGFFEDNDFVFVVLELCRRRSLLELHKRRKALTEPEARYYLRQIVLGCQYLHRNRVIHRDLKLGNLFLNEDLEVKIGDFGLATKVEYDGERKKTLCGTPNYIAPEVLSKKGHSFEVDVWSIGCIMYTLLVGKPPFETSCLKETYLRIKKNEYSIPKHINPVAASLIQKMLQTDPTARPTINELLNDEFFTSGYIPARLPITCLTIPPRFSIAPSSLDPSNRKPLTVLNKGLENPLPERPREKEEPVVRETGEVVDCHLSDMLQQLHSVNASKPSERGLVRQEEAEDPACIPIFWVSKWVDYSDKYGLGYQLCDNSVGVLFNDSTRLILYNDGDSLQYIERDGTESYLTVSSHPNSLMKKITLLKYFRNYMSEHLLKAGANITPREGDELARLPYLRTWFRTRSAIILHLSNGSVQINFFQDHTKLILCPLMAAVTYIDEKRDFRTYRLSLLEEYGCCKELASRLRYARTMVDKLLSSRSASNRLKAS", "experiment": "Inhibition of full length recombinant His-tagged human PLK1 expressed in baculovirus expression system at 10 uM in presence of ATP relative to control"}, "[5]": {"target": "Small conductance calcium-activated potassium channel (Rattus norvegicus, UniProt P70604+P70606+P70605)", "experiment": "Displacement of [125I]apamin from rat brain SkCa channel after 60 mins by scintillation counting analysis"}, "[6]": {"target": "Vasoactive intestinal polypeptide receptor 1 (Homo sapiens, UniProt P32241)", "experiment": "Displacement of [125I]VIP from human recombinant VPAC1 receptor after 60 mins by scintillation counting analysis"}, "[7]": {"target": "Beta-1 adrenergic receptor (Homo sapiens, UniProt P08588)", "sequence (P08588 whole entry, looked up)": "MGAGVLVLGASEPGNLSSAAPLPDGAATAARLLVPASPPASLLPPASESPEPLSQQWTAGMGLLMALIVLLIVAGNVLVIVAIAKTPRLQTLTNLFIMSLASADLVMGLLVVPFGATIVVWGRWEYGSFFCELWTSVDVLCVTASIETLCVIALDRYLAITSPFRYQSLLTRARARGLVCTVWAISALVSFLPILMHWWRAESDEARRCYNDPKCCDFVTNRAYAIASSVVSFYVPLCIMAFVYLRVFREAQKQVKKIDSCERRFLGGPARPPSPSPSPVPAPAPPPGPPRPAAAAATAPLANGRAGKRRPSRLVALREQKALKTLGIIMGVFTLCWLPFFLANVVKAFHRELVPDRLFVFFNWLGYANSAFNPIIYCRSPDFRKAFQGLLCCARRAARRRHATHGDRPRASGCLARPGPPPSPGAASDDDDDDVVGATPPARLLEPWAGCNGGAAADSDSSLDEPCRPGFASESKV", "experiment": "Displacement of [3H](-)CGP 12177 from human beta1 adrenoceptor at 10 uM after 60 mins by scintillation counting analysis relative to control"}, "[8]": {"experiment": "Displacement of [125I]alpha-dendrotoxin from rat brain voltage-gated K channel after 60 mins by scintillation counting analysis"}, "[9]": {"target": "Mitogen-activated protein kinase 3 (Homo sapiens) (UniProt P27361)", "sequence (P27361 whole entry)": "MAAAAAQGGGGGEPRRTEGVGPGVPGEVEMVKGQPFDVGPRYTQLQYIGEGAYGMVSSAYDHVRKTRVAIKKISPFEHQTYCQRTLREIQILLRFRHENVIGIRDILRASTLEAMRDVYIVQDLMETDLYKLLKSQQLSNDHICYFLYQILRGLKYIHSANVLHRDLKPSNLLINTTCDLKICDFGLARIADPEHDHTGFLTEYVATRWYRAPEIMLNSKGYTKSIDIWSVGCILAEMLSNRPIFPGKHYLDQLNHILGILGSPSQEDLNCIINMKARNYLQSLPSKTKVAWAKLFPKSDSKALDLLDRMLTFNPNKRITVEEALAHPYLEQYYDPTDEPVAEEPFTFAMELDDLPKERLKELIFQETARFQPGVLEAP", "experiment": "Inhibition of recombinant full length GST-tagged human ERK1 expressed in Escherichia coli at 10 uM in presence of ATP relative to control"}, "[10]": {"experiment": "Thermodynamic solubility of the compound in 30 mM phosphate buffer at 10 mM at pH 2 after 2 to 5 days by UV-HPLC analysis", "format": "physicochemical", "details": "read-out: Therm_solubility"}, "[11]": {"target": "Tyrosine-protein kinase Blk (Homo sapiens) (UniProt P51451)", "sequence (P51451 2-505 limits assumed)": "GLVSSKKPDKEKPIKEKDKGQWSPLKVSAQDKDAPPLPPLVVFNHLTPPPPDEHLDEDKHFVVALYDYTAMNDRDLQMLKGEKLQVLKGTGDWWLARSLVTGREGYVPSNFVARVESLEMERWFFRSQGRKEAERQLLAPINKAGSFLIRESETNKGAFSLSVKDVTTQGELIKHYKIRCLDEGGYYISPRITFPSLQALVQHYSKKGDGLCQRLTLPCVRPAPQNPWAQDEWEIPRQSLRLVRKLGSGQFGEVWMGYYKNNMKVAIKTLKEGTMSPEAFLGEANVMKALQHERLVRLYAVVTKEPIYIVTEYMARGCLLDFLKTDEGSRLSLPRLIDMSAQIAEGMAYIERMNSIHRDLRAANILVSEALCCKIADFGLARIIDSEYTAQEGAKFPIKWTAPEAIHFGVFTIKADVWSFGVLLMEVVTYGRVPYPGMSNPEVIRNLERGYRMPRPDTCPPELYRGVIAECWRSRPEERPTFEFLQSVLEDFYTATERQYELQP", "experiment": "Inhibition of recombinant full length His-tagged human Blk cytoplasmic domain expressed in Baculovirus expression system at 10 uM in presence of ATP relative to control"}, "[12]": {"target": "T2, Nuclear receptor ROR-beta (Homo sapiens, UniProt Q92753)", "T2 sequence (Q92753 whole entry)": "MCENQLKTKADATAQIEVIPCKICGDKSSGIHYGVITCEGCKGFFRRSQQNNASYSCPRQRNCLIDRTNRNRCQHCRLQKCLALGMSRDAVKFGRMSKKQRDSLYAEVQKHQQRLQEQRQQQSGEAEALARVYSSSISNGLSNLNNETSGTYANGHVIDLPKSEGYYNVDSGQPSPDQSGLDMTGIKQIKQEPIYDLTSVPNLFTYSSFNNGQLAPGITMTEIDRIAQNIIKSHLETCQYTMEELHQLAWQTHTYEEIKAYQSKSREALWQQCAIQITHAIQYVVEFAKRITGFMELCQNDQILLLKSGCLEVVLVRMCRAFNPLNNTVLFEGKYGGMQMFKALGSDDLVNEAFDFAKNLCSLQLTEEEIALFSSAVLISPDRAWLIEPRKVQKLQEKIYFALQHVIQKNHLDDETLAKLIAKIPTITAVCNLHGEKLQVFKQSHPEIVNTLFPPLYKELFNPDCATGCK", "experiment": "Inverse agonist activity at human GAL4 DBD-fused RORbeta LBD (201 to 452 residues) expressed in HEK293T cells assessed as reduction in ROR mediated transcriptional activity after 24 hrs by dual glo luciferase reporter gene assay", "format": "cell-based"}, "[13]": {"target": "T3, Histamine H1 receptor (Homo sapiens, UniProt P35367)", "T3 sequence (P35367 whole entry)": "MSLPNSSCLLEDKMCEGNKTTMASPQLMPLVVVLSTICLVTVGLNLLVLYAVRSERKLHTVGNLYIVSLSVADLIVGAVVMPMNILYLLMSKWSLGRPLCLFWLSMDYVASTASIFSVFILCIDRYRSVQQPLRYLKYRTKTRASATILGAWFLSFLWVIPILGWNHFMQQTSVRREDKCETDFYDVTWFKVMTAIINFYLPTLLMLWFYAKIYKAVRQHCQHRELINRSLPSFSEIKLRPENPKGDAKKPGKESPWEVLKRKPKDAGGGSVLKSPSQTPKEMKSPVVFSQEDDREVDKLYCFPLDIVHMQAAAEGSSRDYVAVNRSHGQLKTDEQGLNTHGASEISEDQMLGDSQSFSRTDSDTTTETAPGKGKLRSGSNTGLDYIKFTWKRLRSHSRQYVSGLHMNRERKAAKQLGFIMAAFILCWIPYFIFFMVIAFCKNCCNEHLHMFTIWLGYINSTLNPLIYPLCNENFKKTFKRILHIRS", "experiment": "Displacement of [3H]pyrilamine from human recombinant histamine H1 receptor after 60 mins by scintillation counting analysis"}, "[14]": {"target": "Neuropeptide Y receptor type 1 (Homo sapiens, UniProt P25929)", "sequence (P25929 whole entry)": "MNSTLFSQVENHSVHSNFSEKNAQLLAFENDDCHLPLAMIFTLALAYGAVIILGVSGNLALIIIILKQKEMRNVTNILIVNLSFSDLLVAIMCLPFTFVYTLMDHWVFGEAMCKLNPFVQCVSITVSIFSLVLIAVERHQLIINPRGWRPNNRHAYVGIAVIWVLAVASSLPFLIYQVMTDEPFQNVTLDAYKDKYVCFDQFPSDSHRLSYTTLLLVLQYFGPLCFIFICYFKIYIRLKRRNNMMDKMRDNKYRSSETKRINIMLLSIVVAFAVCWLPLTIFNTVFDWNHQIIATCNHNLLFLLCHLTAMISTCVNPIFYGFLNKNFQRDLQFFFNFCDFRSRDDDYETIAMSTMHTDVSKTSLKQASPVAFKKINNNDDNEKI", "experiment": "Displacement of [125I]peptide YY from human Y1 receptor after 120 mins by scintillation counting analysis"}, "[15]": {"target": "Neuromedin-K receptor (Homo sapiens) (UniProt P29371)", "sequence (P29371 whole entry)": "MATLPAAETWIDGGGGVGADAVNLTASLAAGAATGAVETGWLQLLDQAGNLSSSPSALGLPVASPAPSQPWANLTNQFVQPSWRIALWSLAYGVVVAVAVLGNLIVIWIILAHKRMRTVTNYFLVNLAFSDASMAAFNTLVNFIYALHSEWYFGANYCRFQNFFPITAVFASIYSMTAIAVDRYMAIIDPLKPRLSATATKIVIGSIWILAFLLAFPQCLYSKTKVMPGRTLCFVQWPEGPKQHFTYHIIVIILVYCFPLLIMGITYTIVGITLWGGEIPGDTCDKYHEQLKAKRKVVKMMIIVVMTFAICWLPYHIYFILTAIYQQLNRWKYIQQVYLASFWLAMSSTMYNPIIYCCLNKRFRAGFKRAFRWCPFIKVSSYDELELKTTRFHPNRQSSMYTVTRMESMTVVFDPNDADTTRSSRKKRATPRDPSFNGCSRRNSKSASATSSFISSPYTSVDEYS", "experiment": "Displacement of [3H]SR 142801 from human recombinant NK3 receptor at 1 uM after 120 mins by scintillation counting analysis relative to control"}, "[16]": {"target": "T3, Histamine H1 receptor", "experiment": "Displacement of [3H]pyrilamine from human recombinant histamine H1 receptor at 10 uM after 60 mins by scintillation counting analysis relative to control"}, "[17]": {"species_on_record": "Rattus norvegicus", "experiment": "Displacement of [3H]batrachotoxinin from rat brain voltage gated sodium ion channel site 2 at 1 uM after 60 mins by scintillation counting analysis relative to control"}, "[18]": {"target": "5-hydroxytryptamine receptor 6 (Homo sapiens, UniProt P50406)", "experiment": "Displacement of [3H]LSD from human recombinant 5-HT6 receptor after 120 mins by scintillation counting analysis"}, "[19]": {"species_on_record": "Rattus norvegicus", "experiment": "Displacement of [3H]flunitrazepam from rat brain central BZD at 1 uM after 60 mins relative to control"}, "[20]": {"target": "5-hydroxytryptamine receptor 2B (Homo sapiens, UniProt P41595)", "sequence (P41595 whole entry)": "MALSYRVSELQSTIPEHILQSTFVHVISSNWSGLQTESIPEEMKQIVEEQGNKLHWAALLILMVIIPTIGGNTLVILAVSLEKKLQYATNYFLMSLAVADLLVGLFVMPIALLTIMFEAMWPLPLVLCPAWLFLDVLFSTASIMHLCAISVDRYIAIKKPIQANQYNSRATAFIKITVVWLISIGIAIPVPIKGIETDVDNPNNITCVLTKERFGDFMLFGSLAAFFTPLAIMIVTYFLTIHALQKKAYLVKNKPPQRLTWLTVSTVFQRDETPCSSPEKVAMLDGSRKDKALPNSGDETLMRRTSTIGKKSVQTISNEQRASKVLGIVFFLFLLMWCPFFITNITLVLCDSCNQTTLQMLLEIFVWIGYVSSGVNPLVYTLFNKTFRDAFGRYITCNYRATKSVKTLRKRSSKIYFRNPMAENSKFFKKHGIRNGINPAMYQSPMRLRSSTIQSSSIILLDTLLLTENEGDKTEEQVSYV", "experiment": "Displacement of [125I]+/-DOI from human recombinant 5-HT2B receptor at 10 uM after 60 mins by scintillation counting analysis relative to control"}, "[21]": {"target": "Muscarinic acetylcholine receptor M2 (Homo sapiens, UniProt P08172)", "sequence (P08172 whole entry)": "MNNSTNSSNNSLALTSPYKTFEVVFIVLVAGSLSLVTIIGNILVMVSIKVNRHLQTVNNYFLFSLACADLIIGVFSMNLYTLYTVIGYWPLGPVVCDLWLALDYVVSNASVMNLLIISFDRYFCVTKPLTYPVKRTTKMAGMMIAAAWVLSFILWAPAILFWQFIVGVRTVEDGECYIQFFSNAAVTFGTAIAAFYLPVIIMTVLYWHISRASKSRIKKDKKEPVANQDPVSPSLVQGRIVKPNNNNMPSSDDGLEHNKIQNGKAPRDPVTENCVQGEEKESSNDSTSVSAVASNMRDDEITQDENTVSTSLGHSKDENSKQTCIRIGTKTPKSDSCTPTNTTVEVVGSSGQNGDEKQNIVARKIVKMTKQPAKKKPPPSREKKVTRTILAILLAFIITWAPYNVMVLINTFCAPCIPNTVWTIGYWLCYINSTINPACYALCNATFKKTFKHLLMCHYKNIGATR", "experiment": "Displacement of [3H]AF-DX 384 from human recombinant M2 receptor after 60 mins by scintillation counting analysis"}, "[22]": {"target": "Epidermal growth factor receptor (Homo sapiens) (UniProt P00533)", "experiment": "Inhibition of recombinant GST-tagged human EGFR (668 to 1210 residues) expressed in baculovirus expression system at 10 uM in presence of ATP relative to control"}, "[23]": {"target": "C-C chemokine receptor type 1 (Homo sapiens) (UniProt P32246)", "experiment": "Displacement of [125I]MIP-1alpha from human recombinant CCR1 receptor at 10 uM after 120 mins by scintillation counting analysis relative to control"}, "[24]": {"target": "Muscarinic acetylcholine receptor M3 (Homo sapiens, UniProt P20309)", "experiment": "Displacement of [3H]4-DAMP from human recombinant M3 receptor after 60 mins by scintillation counting analysis"}},
  "note": "pIC50: −log10 of the molar value.",
  "data": [
    {"compound": "CC(C)(C)NS(=O)(=O)c1ccc(-c2sc(C(=O)N[C@H]3C[C@H](C(=O)O)C3)nc2CC2CCCCC2)c2ccccc12", "values": [
      {"measurement": "inhibition", "setting": "[1]", "value": "< 10", "unit": "%"},
      {"measurement": "inhibition", "setting": "[2]", "value": "< 10", "unit": "%"},
      {"measurement": "Emax at 16 h, 1 µM", "setting": "[3]", "value": 141, "unit": "%"},
      {"measurement": "inhibition", "setting": "[4]", "value": -6, "unit": "%"},
      {"measurement": "IC50", "setting": "[5]", "value": 0.012, "unit": "nM"},
      {"measurement": "pIC50", "setting": "[6]", "value": 9.33},
      {"measurement": "inhibition", "setting": "[7]", "value": 11, "unit": "%"},
      {"measurement": "pIC50", "setting": "[8]", "value": 9.66},
      {"measurement": "inhibition", "setting": "[9]", "value": -7, "unit": "%"},
      {"measurement": "solubility thermodynamic at 10000 µM", "setting": "[10]", "value": "< 1", "unit": "µM"},
      {"measurement": "inhibition", "setting": "[11]", "value": -5, "unit": "%"},
      {"measurement": "pIC50", "setting": "[12]", "value": 6.79},
      {"measurement": "pIC50", "setting": "[13]", "value": 8.77},
      {"measurement": "pIC50", "setting": "[14]", "value": 9.89},
      {"measurement": "inhibition", "setting": "[15]", "value": "< 10", "unit": "%"},
      {"measurement": "inhibition", "setting": "[16]", "value": 54, "unit": "%"},
      {"measurement": "inhibition", "setting": "[17]", "value": "< 10", "unit": "%"},
      {"measurement": "pIC50", "setting": "[18]", "value": 6.60},
      {"measurement": "inhibition", "setting": "[19]", "value": "< 10", "unit": "%"},
      {"measurement": "inhibition", "setting": "[20]", "value": "< 10", "unit": "%"},
      {"measurement": "pIC50", "setting": "[21]", "value": 7.32},
      {"measurement": "inhibition", "setting": "[22]", "value": -3, "unit": "%"},
      {"measurement": "inhibition", "setting": "[23]", "value": "< 10", "unit": "%"},
      {"measurement": "pIC50", "setting": "[24]", "value": 9.14}
    ]}
  ]
}
